Experimental data reported in patent US20030186817A1, “SUBSTITUTED 2,4-DIAMINO-1,3,5-TRIAZINES, PROCESSES FOR THEIR PREPARATION AND THEIR USE AS HERBICIDES AND PLANT GROWTH REGULATORS” (priority 1998, published 2003).

Columns and labels:
[1] = test system: Stellaria media, Amaranthus retroflexus, Sinapis avreuse, Avena fatura, Lolium multiflorum and Setaria viridis; experiment: Pre-emergence action against weeds (greenhouse pot test, visual rating); assay type: in vivo; conditions: application rate of 3.0 kg or less of active substance per hectare, trial period of 3 to 4 weeks
Source text: Seeds of mono- and dicotyledonous weed plants are placed in sandy loam soil in cardboard pots and covered with soil. The novel compounds, formulated as wettable powders or emulsion concentrates, are then applied to the surface of the soil cover in the form of an aqueous suspension or emulsion at an application rate of from 600 to 800 l of water/ha (converted), in various dosages. After the treatment, the pots are placed in a greenhouse and kept under good growth conditions for the weeds. After the test plants have emerged after a trial period of 3 to 4 weeks, the damage to the plants or the negative effect on emergence is rated visually by comparison with untreated controls. As shown by the test results, the novel compounds have good herbicidal pre-emergence activity against a broad spectrum of weed grasses and broad-leaved weeds.

[2] = test system: Stellaria media, Amaranthus retroflexus, Sinapis avreuse, Avena fatura, Lolium multiflorum and Setaria viridis; experiment: Post-emergence action against weeds (greenhouse pot test, visual rating); assay type: in vivo; conditions: three-leaf stage, application rate of 3.0 kg or less of active substance per hectare, 3 to 4 weeks in greenhouse
Procedure: Seeds of mono- and dicotyledonous weeds are placed in sandy loam soil in cardboard pots, covered with soil and cultivated in a greenhouse under good growth conditions. Two to three weeks after sowing, the test plants are treated at the three-leaf stage. The novel compounds, formulated as wettable powders or emulsion concentrates, are sprayed in various dosages onto the green parts of the plant at an application rate of from 600 to 8001 of water/ha (converted), and, after the test plants have remained in the greenhouse for 3 to 4 weeks under optimum growth conditions, the action of the preparations is rated visually by comparison with untreated controls. The novel compositions also have good post-emergence herbicidal activity against a broad spectrum of economically important weed grasses and broad-leaved weeds.

## CC(C)(F)c1nc(N)nc(NC(CCCOc2ccccc2)C2CC2)n1 (stereo not shown) [Example 528]
[1]
  herbicidal activity pre-emergence (damage to the plants or negative effect on emergence, rated visually): good and in most cases very good herbicidal activity
[2]
  herbicidal activity post-emergence (rated visually): good and in most cases very good herbicidal activity

## CC(CCCOc1ccccc1)Nc1nc(N)nc(C(C)C)n1 (stereo not shown) [Example 531]
[1]
  herbicidal activity pre-emergence (damage to the plants or negative effect on emergence, rated visually): good and in most cases very good herbicidal activity
[2]
  herbicidal activity post-emergence (rated visually): good and in most cases very good herbicidal activity

## Cc1cccc(OCCCC(C)Nc2nc(N)nc(C(C)F)n2)c1 (stereo not shown) [Example 532]
[1]
  herbicidal activity pre-emergence (damage to the plants or negative effect on emergence, rated visually): good and in most cases very good herbicidal activity
[2]
  herbicidal activity post-emergence (rated visually): good and in most cases very good herbicidal activity

## CCC(CCCOc1cccc(C)c1)Nc1nc(N)nc(C(C)C)n1 (stereo not shown) [Example 553]
[1]
  herbicidal activity pre-emergence (damage to the plants or negative effect on emergence, rated visually): good and in most cases very good herbicidal activity
[2]
  herbicidal activity post-emergence (rated visually): good and in most cases very good herbicidal activity

## CC(C)c1nc(N)nc(NC(CCCOc2ccccc2)C2CC2)n1 (stereo not shown) [Example 554]
[1]
  herbicidal activity pre-emergence (damage to the plants or negative effect on emergence, rated visually): good and in most cases very good herbicidal activity
[2]
  herbicidal activity post-emergence (rated visually): good and in most cases very good herbicidal activity

## Cc1cccc(OCCCC(Nc2nc(N)nc(C(C)(C)F)n2)C2CC2)c1 (stereo not shown) [Example 582]
[1]
  herbicidal activity pre-emergence (damage to the plants or negative effect on emergence, rated visually): good and in most cases very good herbicidal activity
[2]
  herbicidal activity post-emergence (rated visually): good and in most cases very good herbicidal activity

## CCC(CCCCOc1ccccc1)Nc1nc(N)nc(C(C)(C)F)n1 (stereo not shown) [Example 598]
[1]
  herbicidal activity pre-emergence (damage to the plants or negative effect on emergence, rated visually): good and in most cases very good herbicidal activity
[2]
  herbicidal activity post-emergence (rated visually): good and in most cases very good herbicidal activity

## CCC(CCCCOc1ccccc1)Nc1nc(N)nc(C(F)(F)C(F)F)n1 (stereo not shown) [Example 605]
[1]
  herbicidal activity pre-emergence (damage to the plants or negative effect on emergence, rated visually): good and in most cases very good herbicidal activity
[2]
  herbicidal activity post-emergence (rated visually): good and in most cases very good herbicidal activity

## CC(CCCCOc1ccccc1)Nc1nc(N)nc(C(C)(C)F)n1 (stereo not shown) [Example 609]
[1]
  herbicidal activity pre-emergence (damage to the plants or negative effect on emergence, rated visually): good and in most cases very good herbicidal activity
[2]
  herbicidal activity post-emergence (rated visually): good and in most cases very good herbicidal activity

## CCCc1nc(N)nc(NC(CC)CCCCOc2ccccc2)n1 (stereo not shown) [Example 618]
[1]
  herbicidal activity pre-emergence (damage to the plants or negative effect on emergence, rated visually): good and in most cases very good herbicidal activity
[2]
  herbicidal activity post-emergence (rated visually): good and in most cases very good herbicidal activity

## CC(CCCCOc1ccccc1)Nc1nc(N)nc(C(C)F)n1 (stereo not shown) [Example 626]
[1]
  herbicidal activity pre-emergence (damage to the plants or negative effect on emergence, rated visually): good and in most cases very good herbicidal activity
[2]
  herbicidal activity post-emergence (rated visually): good and in most cases very good herbicidal activity

## CC(C)(F)c1nc(N)nc(NC(CCCCOc2ccccc2)C2CC2)n1 (stereo not shown) [Example 636]
[1]
  herbicidal activity pre-emergence (damage to the plants or negative effect on emergence, rated visually): good and in most cases very good herbicidal activity
[2]
  herbicidal activity post-emergence (rated visually): good and in most cases very good herbicidal activity

## Nc1nc(NC(CCCCOc2ccccc2)C2CC2)nc(C(F)(F)C(F)F)n1 (stereo not shown) [Example 645]
[1]
  herbicidal activity pre-emergence (damage to the plants or negative effect on emergence, rated visually): good and in most cases very good herbicidal activity
[2]
  herbicidal activity post-emergence (rated visually): good and in most cases very good herbicidal activity

## CC(F)c1nc(N)nc(NC(CCCCOc2ccccc2)C2CC2)n1 (stereo not shown) [Example 681]
[1]
  herbicidal activity pre-emergence (damage to the plants or negative effect on emergence, rated visually): good and in most cases very good herbicidal activity
[2]
  herbicidal activity post-emergence (rated visually): good and in most cases very good herbicidal activity

## CC(CCCCOc1ccccc1)Nc1nc(N)nc(C(F)(F)C(F)F)n1 (stereo not shown) [Example 696]
[1]
  herbicidal activity pre-emergence (damage to the plants or negative effect on emergence, rated visually): good and in most cases very good herbicidal activity
[2]
  herbicidal activity post-emergence (rated visually): good and in most cases very good herbicidal activity

## CC(C)(F)c1nc(N)nc(NC2CCCCC2COc2ccccc2)n1 (stereo not shown) [Example 869]
[1]
  herbicidal activity pre-emergence (damage to the plants or negative effect on emergence, rated visually): good and in most cases very good herbicidal activity
[2]
  herbicidal activity post-emergence (rated visually): good and in most cases very good herbicidal activity

## CC(F)c1nc(N)nc(NC2CCCCC2COc2ccccc2)n1 (stereo not shown) [Example 870]
[1]
  herbicidal activity pre-emergence (damage to the plants or negative effect on emergence, rated visually): good and in most cases very good herbicidal activity
[2]
  herbicidal activity post-emergence (rated visually): good and in most cases very good herbicidal activity

## Cc1cccc(CNC(=O)C(C)Nc2nc(N)nc(C(C)(C)F)n2)c1 (stereo not shown) [Example 926]
[1]
  herbicidal activity pre-emergence (damage to the plants or negative effect on emergence, rated visually): good and in most cases very good herbicidal activity
[2]
  herbicidal activity post-emergence (rated visually): good and in most cases very good herbicidal activity

## CC(F)c1nc(N)nc(NCC(=O)NCc2ccccc2)n1 (stereo not shown) [Example 930]
[1]
  herbicidal activity pre-emergence (damage to the plants or negative effect on emergence, rated visually): good and in most cases very good herbicidal activity
[2]
  herbicidal activity post-emergence (rated visually): good and in most cases very good herbicidal activity

## CC(C)c1nc(N)nc(NCC(=O)NCc2ccccc2)n1 [Example 987]
[1]
  herbicidal activity pre-emergence (damage to the plants or negative effect on emergence, rated visually): good and in most cases very good herbicidal activity
[2]
  herbicidal activity post-emergence (rated visually): good and in most cases very good herbicidal activity

## Cc1cccc(CNC(=O)C(C)Nc2nc(N)nc(C(C)C)n2)c1 (stereo not shown) [Example 1005]
[1]
  herbicidal activity pre-emergence (damage to the plants or negative effect on emergence, rated visually): good and in most cases very good herbicidal activity
[2]
  herbicidal activity post-emergence (rated visually): good and in most cases very good herbicidal activity

## Cc1cc(C)cc(CON=CCNc2nc(N)nc(C(C)F)n2)c1 (stereo not shown) [Example 1234]
[1]
  herbicidal activity pre-emergence (damage to the plants or negative effect on emergence, rated visually): good and in most cases very good herbicidal activity
[2]
  herbicidal activity post-emergence (rated visually): good and in most cases very good herbicidal activity

## CCc1nc(N)nc(NCC=NOCc2cc(C)cc(C)c2)n1 [Example 1235]
[1]
  herbicidal activity pre-emergence (damage to the plants or negative effect on emergence, rated visually): good and in most cases very good herbicidal activity
[2]
  herbicidal activity post-emergence (rated visually): good and in most cases very good herbicidal activity

## Cc1cc(C)cc(CON=CCNc2nc(N)nc(C(C)(C)F)n2)c1 [Example 1236]
[1]
  herbicidal activity pre-emergence (damage to the plants or negative effect on emergence, rated visually): good and in most cases very good herbicidal activity
[2]
  herbicidal activity post-emergence (rated visually): good and in most cases very good herbicidal activity

## Cc1cc(C)cc(CON=CCNc2nc(N)nc(C(C)C)n2)c1 [Example 1251]
[1]
  herbicidal activity pre-emergence (damage to the plants or negative effect on emergence, rated visually): good and in most cases very good herbicidal activity
[2]
  herbicidal activity post-emergence (rated visually): good and in most cases very good herbicidal activity

## CC(C)(F)c1nc(N)nc(NCC=NOCc2ccccc2)n1 [Example 1252]
[1]
  herbicidal activity pre-emergence (damage to the plants or negative effect on emergence, rated visually): good and in most cases very good herbicidal activity
[2]
  herbicidal activity post-emergence (rated visually): good and in most cases very good herbicidal activity
